Measured values as given in PMC3787104, “A Purine Analog Synergizes with Chloroquine (CQ) by Targeting Plasmodium falciparum Hsp90 (PfHsp90)” (PLoS ONE, 2013).

Legend:
[1] = biological target: T1, P. falciparum Hsp90 (PfHsp90, PF07_0029) (Plasmodium falciparum, UniProt Q8IC05); test: coupled LDH/NADH ATPase assay, positive control; format: biochemical; design: gene PF3D7_0708400; full-length PfHsp90
Target sequence in this assay (Q8IC05 1-745): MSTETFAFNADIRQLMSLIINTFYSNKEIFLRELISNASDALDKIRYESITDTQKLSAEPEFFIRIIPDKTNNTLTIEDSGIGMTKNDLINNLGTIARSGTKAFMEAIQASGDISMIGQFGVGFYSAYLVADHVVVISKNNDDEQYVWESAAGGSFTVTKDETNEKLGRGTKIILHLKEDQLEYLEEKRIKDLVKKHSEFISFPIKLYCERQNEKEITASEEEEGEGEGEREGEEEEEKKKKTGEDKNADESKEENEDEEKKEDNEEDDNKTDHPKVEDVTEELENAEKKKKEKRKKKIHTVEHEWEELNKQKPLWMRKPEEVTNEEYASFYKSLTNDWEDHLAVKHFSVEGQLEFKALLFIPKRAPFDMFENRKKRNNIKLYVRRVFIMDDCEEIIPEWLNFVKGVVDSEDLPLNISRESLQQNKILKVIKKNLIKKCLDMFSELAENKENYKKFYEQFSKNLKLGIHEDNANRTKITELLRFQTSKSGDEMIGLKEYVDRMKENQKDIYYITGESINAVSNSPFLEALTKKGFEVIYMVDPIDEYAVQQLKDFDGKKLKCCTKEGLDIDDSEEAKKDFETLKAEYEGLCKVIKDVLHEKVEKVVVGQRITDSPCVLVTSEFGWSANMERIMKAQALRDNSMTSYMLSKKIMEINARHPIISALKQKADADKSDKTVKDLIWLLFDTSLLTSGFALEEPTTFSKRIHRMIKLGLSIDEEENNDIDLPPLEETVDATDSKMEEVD

[2] = biological target: T1, P. falciparum Hsp90 (PfHsp90, PF07_0029); test: SPR (Biacore X), positive control; also full-length ATPase inhibition, […]; format: binding; design: gene PF3D7_0708400; full length also tested in ATPase assay
Target sequence in this assay (Q8IC05 entry or part of it): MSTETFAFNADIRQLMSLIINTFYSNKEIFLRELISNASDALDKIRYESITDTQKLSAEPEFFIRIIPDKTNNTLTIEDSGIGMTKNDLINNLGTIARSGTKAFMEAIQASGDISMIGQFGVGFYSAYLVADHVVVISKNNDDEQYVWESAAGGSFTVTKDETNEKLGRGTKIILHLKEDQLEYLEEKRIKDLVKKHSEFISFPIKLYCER

Row | SMILES | IC50 [1] | Kd [2]
1 | C[C@@H]1C[C@H]2O[C@@H]2/C=C\C=C\C(=O)Cc2c(Cl)c(O)cc(O)c2C(=O)O1 [radicicol] | 0.144 µM | 
2 | C=CCNC1=C2C[C@@H](C)C[C@H](OC)[C@H](O)[C@@H](C)/C=C(\C)[C@H](OC(N)=O)[C@@H](OC)/C=C\C=C(/C)C(=O)NC(=CC1=O)C2=O [17-AAG] |  | 105 ± 0.33 µM
